Among the data in patent US9815846B2 (Merck Sharp & Dohme Corp., priority 2014, dated 2017) are IC50 values, retold here.

The test has as its target human TrkA receptor (Homo sapiens (Human), UniProt P04629). Briefly: DiscoverX PathHunter TrkA functional assay (NGF-stimulated U2OS cells). The following applies: U2OS cells expressing human TrkA-PK, Shc1-EA and p75NTR; compound 1 h, then NGF at ~80% of maximal response for 3 h; luminescence. Type of test: cell-based.

Chain of human TrkA receptor (P04629 33-796): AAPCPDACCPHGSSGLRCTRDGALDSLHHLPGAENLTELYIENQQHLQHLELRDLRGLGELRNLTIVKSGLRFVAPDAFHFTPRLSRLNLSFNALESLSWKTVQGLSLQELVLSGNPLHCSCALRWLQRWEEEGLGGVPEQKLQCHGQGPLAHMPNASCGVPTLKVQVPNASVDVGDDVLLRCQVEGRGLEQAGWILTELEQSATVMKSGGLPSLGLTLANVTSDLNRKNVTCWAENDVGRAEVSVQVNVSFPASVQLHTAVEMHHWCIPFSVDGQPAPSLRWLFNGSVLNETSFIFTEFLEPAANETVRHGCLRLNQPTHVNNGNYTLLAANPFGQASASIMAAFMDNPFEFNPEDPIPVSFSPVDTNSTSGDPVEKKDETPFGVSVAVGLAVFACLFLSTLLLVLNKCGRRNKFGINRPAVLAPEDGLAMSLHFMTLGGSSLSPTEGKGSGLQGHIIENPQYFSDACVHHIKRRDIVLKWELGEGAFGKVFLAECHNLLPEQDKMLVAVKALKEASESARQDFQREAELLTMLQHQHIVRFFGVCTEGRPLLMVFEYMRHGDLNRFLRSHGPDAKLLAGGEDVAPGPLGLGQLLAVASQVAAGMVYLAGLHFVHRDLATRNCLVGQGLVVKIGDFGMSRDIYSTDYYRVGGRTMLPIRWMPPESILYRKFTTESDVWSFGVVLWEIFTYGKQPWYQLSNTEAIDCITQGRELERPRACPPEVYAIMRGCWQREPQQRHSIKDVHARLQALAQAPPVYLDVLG
Method: TrkA functional activity was measured using a DiscoverX PathHunter assay. In this assay, U2OS cells express the human TrkA receptor as a fusion with the weakly complementing fragment of B-galactosidase, which DiscoverX calls “Prolink (PK)”; additionally, Shcl is fused with a larger fragment, which is called “Enzyme Acceptor (EA)”. Activation of the TrkA receptor, upon NGF addition, results in the kinase domain being phosphorylated, resulting in subsequent recruitment of Shcl-EA protein. That recruitment results in an active B-galactosidase enzyme that is detected by addition of a chemiluminescent substrate. The human p75^NTR protein was also expressed as a co-receptor for NGF.
All reagents were purchased from DiscoverX, except for the receptor agonists (NGF, BDNF, NT3) which were purchased from Peprotech. Cells were expanded and frozen into cryovials, and stored in the vapor phase of liquid nitrogen, and thawed immediately before use. Thawed cells were added to a 384-well plate at 7500 cells/well, and allowed to incubate overnight. Compound at various concentrations was added the following morning and allowed to incubate on cells for 1 h. Then, NGF was added at a concentration sufficient to elicit ˜80% of a maximal response and allowed to incubate for 3 h at ambient temperature. DiscoverX PathHunter detection reagent was then added and the plate was further incubated for 1 h in the dark. The plate was then read via luminescence on the Perkin Elmer Envision.

By IC50 is commonly meant the concentration at which inhibition is half-maximal. Higher therefore signals lower potency. `Cn1ccc(-c2cc(C(=O)Nc3ccc(CNC(=O)C(O)CO)nc3-c3ccccc3)c(F)cc2C(F)(F)F)n1` (single isomer, unassigned) [Example 61, (S or R)-N-(6-((2,3-dihydroxypropanamido)methyl)-2-phenylpyridin-3-yl)-2-fluoro-5-(1-methyl-1H-pyrazol-3-yl)-4-(trifluoromethyl)benzamide] displayed an IC50 of 0.64 nM.

`Cn1ccc(-c2cc(C(=O)Nc3ccc(CNC(=O)C(O)CO)nc3-c3ccccc3)c(F)cc2C(F)(F)F)n1` (single isomer, unassigned) [Example 62, (S or R)-N-(6-((2,3-dihydroxypropanamido)methyl)-2-phenylpyridin-3-yl)-2-fluoro-5-(1-methyl-1H-pyrazol-3-yl)-4-(trifluoromethyl)benzamide] came in with an IC50 of 0.79 nM.

Turning to `CN1CCOC(C(=O)NCc2ccc(NC(=O)c3cc(-c4ccn(C)n4)c(C(F)(F)F)cc3F)c(-c3ccccc3)n2)C1` (single isomer, unassigned) [Example 63, (S or R)-N-((5-(2-fluoro-5-(1-methyl-1H-pyrazol-3-yl)-4-(trifluoromethyl)benzamido)-6-phenylpyridin-2-yl)methyl)-4-methylmorpholine-2-carboxamide], half-maximal inhibition (IC50) was put at 1.8 nM. Compared with the last compound, the IC50 is about 2.3-fold higher.

Compound `Cn1ccc(-c2cc(C(=O)Nc3cnc(CNC(=O)C(C)(N)CO)nc3-c3ccccc3)c(F)cc2C(F)(F)F)n1` (single isomer, unassigned) [Example 66, (S or R)-N-(2-((2-amino-3-hydroxy-2-methylpropanamido)methyl)-4-phenylpyrimidin-5-yl)-2-fluoro-5-(1-methyl-1H-pyrazol-3-yl)-4-(trifluoromethyl)benzamide] registered an IC50 of 1.2 nM.

In turn, `Cn1ccc(-c2cc(C(=O)Nc3cc(C4CCC(=O)N4)cnc3-c3ccccc3)c(F)cc2C(F)(F)F)n1` (single isomer, unassigned) [Example 181, (R or S)-2-Fluoro-5-(1-methyl-1H-pyrazol-3-yl)-N-(5-(5-oxopyrrolidin-2-yl)-2-phenylpyridin-3-yl)-4-(trifluoromethyl)benzamide] displayed an IC50 of 3.5 nM. This IC50 is about 2.9-fold higher than that of the compound before.

For `Cn1ccc(-c2cc(C(=O)Nc3ccc(C4CCNC4=O)nc3-c3ccccc3)ccc2C(F)(F)F)n1` (single isomer, unassigned) [Example 186, (R or S)-3-(1-Methyl-1H-pyrazol-3-yl)-N-(6-(2-oxopyrrolidin-3-yl)-2-phenylpyridin-3-yl)-4-(trifluoromethyl)benzamide], the IC50 was 5 nM.

In turn, `Cn1ccc(-c2cc(C(=O)Nc3cnc(CC4NC(=O)NC4=O)nc3-c3ccccc3)ccc2C(F)(F)F)n1` (single isomer, unassigned) [Example 190, (R or S)—N-(2-(2,5-Dioxoimidazolidin-4-yl)methyl)-4-phenylpyrimidin-5-yl)-3-(1-methyl-1H-pyrazol-3-yl)-4-(trifluoromethyl)benzamide] displayed an IC50 of 1.8 nM.

Turning to `Cn1ccc(-c2cc(C(=O)Nc3cnc(CC4CCNC4=O)nc3-c3ccccc3)c(F)cc2C(F)(F)F)n1` (single isomer, unassigned) [Example 191, (R or S)-2-Fluoro-5-(1-methyl-1H-pyrazol-3-yl)-N-(2-(2-oxopyrrolidin-3-yl)methyl)-4-phenylpyrimidin-5-yl)-4-(trifluoromethyl)benzamide], the IC50 came out at 4.5 nM.

Regarding `Cn1ccc(-c2cc(C(=O)Nc3ccc(C(O)CO)nc3-c3ccccc3)c(F)cc2C(F)(F)F)n1` (single isomer, unassigned) [Example 192, (R or S)—N-(6-(1,2-Dihydroxyethyl)-2-phenylpyridin-3-yl)-2-fluoro-5-(1-methyl-1H-pyrazol-3-yl)-4-(trifluoromethyl)benzamide], the IC50 came out at 2.3 nM. Compared with the last compound, the IC50 is about 2-fold lower.

For the compound `Cn1ccc(-c2cc(C(=O)Nc3ccc(C4COC(=O)N4)nc3-c3ccccc3)c(F)cc2C(F)(F)F)n1` (single isomer, unassigned) [Example 196, (R or S)-2-Fluoro-5-(1-methyl-1H-pyrazol-3-yl)-N-(6-(2-oxooxazolidin-4-yl)-2-phenylpyridin-3-yl)-4-(trifluoromethyl)benzamide], the IC50 was found to be 0.19 nM.

In the case of `Cn1ccc(-c2cc(C(=O)Nc3cnc(C4CCNC4=O)nc3-c3ccccc3)c(F)cc2C(F)(F)F)n1` (single isomer, unassigned) [Example 197, (R or S)-2-Fluoro-5-(1-methyl-1H-pyrazol-3-yl)-N-(2-(2-oxopyrrolidin-3-yl)-4-phenylpyrimidin-5-yl)-4-(trifluoromethyl)benzamide], the IC50 stood at 3.7 nM.

The compound `Cn1ccc(-c2cc(C(=O)Nc3ccc(C4CNC(=O)C4)nc3-c3ccccc3)c(F)cc2C(F)(F)F)n1` (single isomer, unassigned) [Example 198, (R or S)-2-Fluoro-5-(1-methyl-1H-pyrazol-3-yl)-N-(6-(5-oxopyrrolidin-3-yl)-2-phenylpyridin-3-yl)-4-(trifluoromethyl)benzamide] gave an IC50 of 0.57 nM. Against the preceding compound, the IC50 is about 6.5-fold lower.

Consider `Cn1ccc(-c2cc(C(=O)Nc3cnc(CN4CCOC4=O)nc3-c3ccccc3)c(F)cc2C(F)(F)F)n1` (single isomer, unassigned) [Example 218], for which the IC50 amounted to 0.14 nM.

`Cn1ccc(-c2cc(C(=O)Nc3cnc(CN4CC(CO)OC4=O)nc3-c3ccccc3)c(F)cc2C(F)(F)F)n1` (single isomer, unassigned) [Example 228, (R or S)-2-fluoro-N-(2-((5-(hydroxymethyl)-2-oxooxazolidin-3-yl)methyl)-4-phenylpyrimidin-5-yl)-5-(1-methyl-1H-pyrazol-3-yl)-4-(trifluoromethyl)benzamide]: the IC50 came to 0.66 nM.

As for `O=C(Nc1cc(N2CCOCC2)cnc1-c1ccccc1)c1ccc(C(F)(F)F)cc1Cl` [Example 1, 2-Chloro-N-(5-morpholino-2-phenylpyridin-3-yl)-4-(trifluoromethyl)benzamide], the IC50 came to 480 nM.

Compound `Cc1ncc(NC(=O)c2cc(-c3ncccn3)c(Cl)cc2F)c(-c2ccccc2)n1` [Example 2, 4-Chloro-2-fluoro-N-(2-methyl-4-phenylpyrimidin-5-yl)-5-(pyrimidin-2-yl)benzamide] had an IC50 of 100 nM. This IC50 is about 4.8-fold lower than that of the compound before.

For the compound `Cc1cc(-c2ccccc2)c(NC(=O)c2ccc(OC(F)(F)F)c(-c3ccn(C)n3)c2)cn1` [Example 3, 3-(1-Methyl-1H-pyrazol-3-yl)-N-(6-methyl-4-phenylpyridin-3-yl)-4-(trifluoromethoxy)benzamide], inhibition was half-maximal at 54 nM (IC50).

`Cc1nc(Cl)c(NC(=O)c2ccc(C(F)(F)F)c(-c3ccn(C)n3)c2)c(-c2ccccc2)n1` [Example 4, N-(4-Chloro-2-methyl-6-phenylpyrimidin-5-yl)-3-(1-methyl-1H-pyrazol-3-yl)-4-(trifluoromethyl)benzamide] had an IC50 of 160 nM.

Turning to `Cc1cc(-c2ccccc2)c(NC(=O)c2ccc(C(F)(F)F)c(-c3cc[nH]n3)c2)cn1` [Example 5, N-(6-Methyl-4-phenylpyridin-3-yl)-3-(1H-pyrazol-5-yl)-4-(trifluoromethyl)benzamide], the IC50 was determined as 14 nM.

In turn, `O=C(Nc1ccccc1-c1ccc(F)cc1)c1ccc(C(F)(F)F)cc1F` [Example 6, 2-fluoro-N-(4′-fluorobiphenyl-2-yl)-4-(trifluoromethyl)benzamide] displayed an IC50 of 4900 nM.

Turning to `Cc1cc(-c2ccccc2NC(=O)c2cccc(-c3nccs3)c2)n[nH]1` [Example 7, N-[2-(5-methyl-1H-pyrazol-3-yl)phenyl]-3-(1,3-thiazol-2-yl)benzamide], the IC50 is 4000 nM.

`Cc1ncc(NC(=O)c2ccc(C)c(F)c2F)c(-c2ccccc2)n1` [Example 8, 2,3-difluoro-4-methyl-N-(2-methyl-4-phenylpyrimidin-5-yl)benzamide] displayed an IC50 of 4300 nM. The IC50 values of the last two compounds are within 1.5-fold of each other.

On to `Cc1cc(C)n(-c2ccc(Cl)c(C(=O)Nc3cnc(C)nc3-c3ccccc3)c2)n1` [Example 9, 2-chloro-5-(3,5-dimethyl-1H-pyrazol-1-yl)-N-(2-methyl-4-phenylpyrimidin-5-yl)benzamide], for which the IC50 was determined as 140 nM.

In the case of `O=C(Nc1cc(-c2cccnc2)cnc1-c1ccccc1)c1ccc(C(F)(F)F)cc1` [Example 10, N-(6-phenyl-3,3′-bipyridin-5-yl)-4-(trifluoromethyl)benzamide], the IC50 turned out to be 1600 nM.

In the case of `Cc1cc(-c2ccccc2NC(=O)c2cc(-n3nc(C)cc3C)ccc2Cl)on1` [Example 11, 2-chloro-5-(3,5-dimethyl-1H-pyrazol-1-yl)-N-[2-(3-methylisoxazol-5-yl)phenyl]benzamide], the concentration for half-maximal inhibition (IC50) was determined as 7500 nM.

As for `Cc1ncc(NC(=O)c2ccc(C(F)(F)F)c(-c3cscn3)c2)c(-c2ccccc2)n1` [Example 12, N-(2-methyl-4-phenylpyrimidin-5-yl)-3-(1,3-thiazol-4-yl)-4-(trifluoromethyl)benzamide], the IC50 came out at 36 nM.

`Cc1cc(C)n(-c2cc(C(=O)Nc3cnc(C)nc3-c3ccccc3)ccc2F)n1` [Example 13, 3-(3,5-dimethyl-1H-pyrazol-1-yl)-4-fluoro-N-(2-methyl-4-phenylpyrimidin-5-yl)benzamide] gave an IC50 of 910 nM.

As for `Cc1ncc(NC(=O)c2cccc(-n3nccc3C(F)(F)F)c2)c(-c2ccccc2)n1` [Example 14, N-(2-methyl-4-phenylpyrimidin-5-yl)-3-[5-(trifluoromethyl)-1H-pyrazol-1-yl]benzamide], the IC50 was 590 nM.

In turn, `Cc1ncc(NC(=O)c2ccc(C(F)(F)F)c(-c3ccn(C)n3)c2)c(-c2ccccc2)n1` [Example 15, N-(2-methyl-4-phenylpyrimidin-5-yl)-3-(1-methyl-1H-pyrazol-3-yl)-4-(trifluoromethyl)benzamide] returned an IC50 of 3 nM.

As for `Cc1ncc(NC(=O)c2ccc(C(F)(F)F)c(-n3nccn3)c2)c(-c2ccccc2)n1` [Example 16, N-(2-methyl-4-phenylpyrimidin-5-yl)-3-(2H-1,2,3-triazol-2-yl)-4-(trifluoromethyl)benzamide], the IC50 was determined as 66 nM.

Turning to `Cc1ccn(-c2cc(C(=O)Nc3cnc(C)nc3-c3ccccc3)ccc2C(F)(F)F)n1` [Example 17, N-(2-methyl-4-phenylpyrimidin-5-yl)-3-(3-methyl-1H-pyrazol-1-yl)-4-(trifluoromethyl)benzamide], 15 nM corresponded to half-maximal inhibition (IC50).
